# Measured values from publication PMC8262977, “A Dual-Specificity Inhibitor Targets Polyphosphate Kinase 1 and 2 Enzymes To Attenuate Virulence of Pseudomonas aeruginosa” (mBio, 2021).
# Tests used:
# P. aeruginosa PPK2B = molecular target: T1, P. aeruginosa PPK2B (Pseudomonas aeruginosa, UniProt Q9I154); assay: PPK2B polyP synthesis from ATP, toluidine blue detection; assay type: biochemical; details: polyP synthesis from ATP; 275 nM enzyme; read-out: IC50 PPK2B
# T1 construct: MBP (N, cleaved yes); His tag (N, cleaved yes); made in house; host or cells: E. coli BL21(DE3)
# Procedure: (§1) Compounds were synthesized as outlined in Text S1. Compounds were dissolved in DMSO to make 10 mM stocks and added to a 200 μM final concentration for initial screening. The screen for PPK1 inhibitors was conducted by measuring polyP synthesis activity as described previously ([12]), with the exception of the polyP detection method (see Text S1). The reaction mix contained 50 mM HEPES-KOH, pH 7.5, 40 mM (NH4)2SO4, 4 mM MgSO4, 60 mM creatine phosphate, 0.0625 mg/ml creatine kinase (Sigma; from rabbit muscle), 5 mM ATP, and 275 nM PPK1 (added last). One-hundred-microliter reaction mixtures were incubated at 37°C for 30 min, after which time 50-μl aliquots were withdrawn and added to 1,000 μl of 6-mg/liter toluidine blue dissolved in 40 mM acetic acid to quench the reaction and quantify polyP ([27]). The A630/530 nm ratio was then recorded, and the values obtained were corrected by subtracting the corresponding blanks (all ingredients except enzyme). The amount of polyP synthesized was calculated using a standard curve (Fig. S1A). Any compounds showing 50% or greater reduction in activity relative to the DMSO control were subjected to further IC50 analysis.
# (§2) All IC50 and kinetic assay mixtures contained equimolar amounts (275 nM) of PPK to ensure valid comparison between different enzymes. PolyP synthesis activity (for PPK1 and PPK2B) was assayed using the reaction buffer and conditions described above. ATP concentration was varied as indicated for kinetic experiments. Curves were fit using GraphPad Prism V9.
# P. aeruginosa PPK1 = molecular target: T2, P. aeruginosa PPK1 (Pseudomonas aeruginosa, UniProt P0DP44); assay: PPK1 polyP synthesis from ATP, toluidine blue detection; assay type: biochemical
# T2 construct: His tag (cleaved yes); made in house
# Procedure: as §1, with “The reaction mix contained 50 mM HEPES-KOH, pH 7.5, 40 mM (NH4)2SO4, 4 mM MgSO4, 60 mM creatine phosphate, 0.0625 mg/ml creatine kinase (Sigma; from rabbit muscle), 5 mM ATP, and 275 nM PPK1 (added last).” left out
# as §2
# C. elegans = assay: Toxicity toward C. elegans (OP50 + gallein curves); assay type: in vivo, Caenorhabditis elegans; details: 100 μM
# Procedure: We tested both liquid killing (LK) and solid-phase slow killing (SK) models of infection, as these two assays are reliant upon distinct mechanisms of P. aeruginosa pathogenesis ([34], [35]). […]. Wild-type N2 C. elegans and the glp-4 conditionally sterile mutant strain were obtained from the Caenorhabditis Genetics Center. Liquid killing assays were conducted using glp-4 mutant worms as described previously ([35]), with the exception of survival being scored manually under a Zeiss light microscope instead of via Sytox Orange staining. Nematodes were scored as dead when they no longer moved when tapped. Solid killing was conducted using glp-4 as described previously ([34]), with the indicated concentration of inhibitor impregnated into the SK agar. Bacterial CFU accumulation in WT N2 worms was quantified as described previously ([56]). Briefly, age-synchronized embryos were spotted onto bacterium-seeded nematode growth medium (NGM) agar plates impregnated with inhibitor or DMSO. Embryos were incubated at 25°C for 3 days, after which point adult worms were harvested, washed, lysed, and enumerated for CFU.
# P. aeruginosa [1] = assay: Antibiotic synergy in the C. elegans LK model; assay type: in vivo, Caenorhabditis elegans; details: for protection of C. elegans in combination with antibiotic: LK assay
# Procedure: Assessment of antibiotic synergy in the C. elegans model was adapted from previously described protocols ([25]). Briefly, glp-4 C. elegans worms were incubated at 25°C with P. aeruginosa and the indicated amount of gallein or DMSO in LK medium as described above. After 24 h, antibiotics were added. After another 24 h, C. elegans survival was scored as described above.
# P. aeruginosa [2] = assay: microbe, parasite or virus in culture; assay type: cell-based, Pseudomonas aeruginosa; details: 100 μM gallein, LK medium
# HEK293T cells = assay: HEK293T cytotoxicity assay, trypan blue; assay type: cell-based, human; details: concentrations up to 100 μM, 48 h incubation
# Procedure: HEK293 cells were grown in Dulbecco’s modified Eagle’s medium supplemented with 10% fetal bovine serum at 5% CO2 and 37°C. Cells were grown until a confluent monolayer was formed in 12-well culture plates, at which point inhibitors or DMSO was added. After 48-h incubation, cells were detached with trypsin and percent viability was scored via a hemocytometer and trypan blue staining.
# P. aeruginosa PA14 = assay: Pyoverdine quantification (absorbance at 403 nm); assay type: cell-based, Pseudomonas aeruginosa
# Procedure: Fifty-milliliter P. aeruginosa cultures in 2.5% (wt/vol) LB (Miller; Bioshop) were grown to stationary phase in 125-ml Erlenmeyer flasks with 180-rpm shaking at 37°C for 18 h. Cultures were centrifuged at 18,000 rpm for 30 min to clarify the supernatant, which was then filter sterilized. Pyoverdine was quantified spectrophotometrically at 403 nm as described previously ([55]). Pyocyanin was extracted via chloroform and treated with HCl to yield a red product that was quantified at 520 nm ([55]). To account for any colorimetric interference by inhibitors, cell-free blank readings were subtracted from each sample.
# T2 sequence (P0DP44 whole entry): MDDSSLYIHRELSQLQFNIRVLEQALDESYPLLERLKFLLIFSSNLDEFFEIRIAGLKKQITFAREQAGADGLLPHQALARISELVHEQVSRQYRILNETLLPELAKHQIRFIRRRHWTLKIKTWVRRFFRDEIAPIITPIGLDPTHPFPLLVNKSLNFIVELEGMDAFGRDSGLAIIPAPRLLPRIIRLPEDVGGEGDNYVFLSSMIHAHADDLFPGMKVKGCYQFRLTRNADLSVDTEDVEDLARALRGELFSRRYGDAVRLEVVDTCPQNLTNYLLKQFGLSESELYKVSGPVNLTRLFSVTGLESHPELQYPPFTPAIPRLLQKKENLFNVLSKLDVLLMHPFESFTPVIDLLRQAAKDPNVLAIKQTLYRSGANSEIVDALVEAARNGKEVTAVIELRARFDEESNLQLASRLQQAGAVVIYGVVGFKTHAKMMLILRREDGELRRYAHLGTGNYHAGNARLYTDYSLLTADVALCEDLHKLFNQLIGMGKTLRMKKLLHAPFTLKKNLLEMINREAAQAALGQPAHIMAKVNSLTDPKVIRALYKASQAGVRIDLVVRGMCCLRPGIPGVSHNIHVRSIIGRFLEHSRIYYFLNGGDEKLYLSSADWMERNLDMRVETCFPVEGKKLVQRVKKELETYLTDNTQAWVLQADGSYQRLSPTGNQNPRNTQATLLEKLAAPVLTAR
# T1 sequence (Q9I154 whole entry): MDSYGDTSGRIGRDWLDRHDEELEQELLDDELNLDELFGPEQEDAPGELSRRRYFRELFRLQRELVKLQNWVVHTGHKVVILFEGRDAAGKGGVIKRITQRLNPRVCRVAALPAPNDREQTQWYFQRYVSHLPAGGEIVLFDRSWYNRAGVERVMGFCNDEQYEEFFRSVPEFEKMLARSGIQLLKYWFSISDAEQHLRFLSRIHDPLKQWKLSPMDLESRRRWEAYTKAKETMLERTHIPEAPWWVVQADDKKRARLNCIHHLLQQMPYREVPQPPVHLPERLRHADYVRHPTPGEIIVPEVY
compound,measurement,setting,value
"O=C1OC2(c3ccccc31)c1ccc(O)c(O)c1Oc1c2ccc(O)c1O [RT4 (gallein), gallein]",IC50,P. aeruginosa PPK2B,20 ± 2 µM
same,PPK1 activity in the absence of ATP regeneration,"P. aeruginosa PPK1; no creatine kinase/creatine phosphate, low-micromolar gallein",reduced both PPK1 activity rate and equilibrium polyP levels
same,IC50,"P. aeruginosa PPK1; polyP synthesis from ATP, 275 nM enzyme",17 ± 1 µM
same,toxicity toward C. elegans,C. elegans,no gallein toxicity toward C. elegans was observed
same,"C. elegans antibiotic synergy, Mean Diff.",P. aeruginosa [1]; Cipro (0.75 µg/mL) DMSO vs Cipro (0.75 µg/mL) + 100 µM gallein,-47.1
same,protection of C. elegans in combination with antibiotic,P. aeruginosa [1]; in combination with ciprofloxacin,achieved greater protection of C. elegans than did gallein or antibiotics alone
same,protection of C. elegans in combination with antibiotic,P. aeruginosa [1]; in combination with tetracycline,achieved greater protection of C. elegans than did gallein or antibiotics alone
same,"C. elegans antibiotic synergy, Mean Diff.",P. aeruginosa [1]; No antibiotic DMSO vs Cipro (0.75 µg/mL) + 100 µM gallein,-35.08
same,"C. elegans antibiotic synergy, Mean Diff.",P. aeruginosa [1]; No antibiotic DMSO vs No antibiotic + 100 µM gallein,-16.19
same,"C. elegans antibiotic synergy, Mean Diff.",P. aeruginosa [1]; No antibiotic DMSO vs Tet (10 µg/mL) + 100 µM gallein,-38.97
same,"C. elegans antibiotic synergy, Mean Diff.",P. aeruginosa [1]; Tet (10 µg/mL) DMSO vs Tet (10 µg/mL) + 100 µM gallein,-49.51
same,effect on the MIC of tetracycline or ciprofloxacin,P. aeruginosa [2],did not alter the MIC
same,cytotoxicity,HEK293T cells,noncytotoxic
same,pyoverdine production,"P. aeruginosa PA14; WT, Δppk1 and Δppk2 strains",reproduced the marked pyoverdine and pyocyanin defects observed in the ΔpolyP strain
same,"Pyoverdine, Mean Diff.",P. aeruginosa PA14; WT: DMSO control vs 100 µM gallein,38.33
same,pyoverdine production,P. aeruginosa PA14; ΔpolyP strain,no significant decrease of either toxin
same,"Pyoverdine, Mean Diff.","P. aeruginosa PA14; Δppk1, 2a, 2b, 2c: DMSO control vs 100 µM gallein",-3.233
same,"Pyoverdine, Mean Diff.",P. aeruginosa PA14; Δppk1: DMSO control vs 100 µM gallein,17.13
same,"Pyoverdine, Mean Diff.","P. aeruginosa PA14; Δppk2a, 2b, 2c: DMSO control vs 100 µM gallein",45.33
